The values that follow come from patent publication US4087603A, “Antifungal antibiotics” (priority 1976, dated 1978).

A short description of one series: Solubility. Format: physicochemical.
The next series in a line: Acute toxicity in mice. The format is in vivo.
The next series has as its system C. albicans A-26. The series is described as follows: In vivo antifungal activity in X-irradiated mice infected intravenously with C. albicans A-26. To be noted: Candida albicans, A26, light or radiation study, sc, C. albicans A-26 i.v. infection, sub-lethal X-irradiation 24 hours prior, read-out: average effective dose, ED50. The protocol: As previously mentioned, the compounds of this invention are effective systemic antifungal agents. When administered orally or parenterally, the antifungal compounds of this invention are effective in combatting systemic fungal infections for example, Candida albicans systemic infections. […] The tests in mice were carried out in the following manner. Two groups of mice, one a control group, were exposed to a sub-lethal dose of X-irradiation 24 hours prior to infection with C. albicans A-26. The mice were infected by intravenous administration of C. albicans cells.

Series [1] relates to systemic fungal infections. To be noted: cited from earlier work.
The subject of a further series is fungi. Conditions: cited from earlier work.

As to `Nc1ncnc2c1ncn2[C@@H]1O[C@H](CC2CCC(N)C(=O)N2)[C@@H](O)[C@H]1O` (stereo partly drawn) [compound I, 5'-deoxy-5'-(3-aminopiperidin-2-one-6-yl)adenosine], the solubility in acetone entry in the series “Solubility” (acetone) is listed as “sparingly soluble”. Besides, in the series “Solubility” (ethanol), the solubility in ethanol entry is given as “sparingly soluble”. In the series “Solubility”, the solubility in methanol entry was “sparingly soluble” and the solubility in water entry is recorded as “highly soluble”. The acute toxicity result in “Acute toxicity in mice” (mice, dose of about 1000 mg./kg.) was “no acute toxicity was observed”. Besides, the ED50 in the series on C. albicans A-26 amounted to 38 mg/kg.

For `NC(=O)NC(CCC(N)C[C@H]1O[C@@H](n2cnc3c(N)ncnc32)[C@H](O)[C@@H]1O)C(N)=O` (stereo partly drawn) [compound II, 5'-deoxy-5'-(1-amino-4-ureido-4-carboxyamidobutyl)adenosine], in the series “Solubility”, the solubility in water entry is “highly soluble”. Further, the acute toxicity result in “Acute toxicity in mice” (dose of 400 mg./kg.) was “no acute toxicity was observed”. Also, in the series with C. albicans A-26, the ED50 is about 21 mg/kg.

In the case of `Nc1ncnc2c1ncn2[C@@H]1O[C@H](CC(N)CC[C@H](N)C(=O)O)[C@@H](O)[C@H]1O` (stereo partly drawn) [A-9145, 5'-deoxy-5'-(1,4-diamino-4-carboxybutyl)adenosine], the “activity in vivo (known antibiotic)” value in series [1] was “active both in vitro and in vivo”. Further, the “activity in vitro (known antibiotic)” value in the series on fungi is “active both in vitro and in vivo”. The solubility in methanol result in the series “Solubility” is listed as “partially soluble”.

Broadly, the ED50 is the midpoint of the dose-response relation.
